These results are taken from paper PMC7041945, “Misfolded proteins bind and activate death receptor 5 to trigger apoptosis during unresolved endoplasmic reticulum stress” (eLife, 2020).

This assay concerns DR5 ECD. As to the kind of experiment: Peptide array binding of Fc-tagged DR5 ectodomain (MPZ and RHO sequences; amino acid enrichment). The arrangement: species or system human. As to conditions: rhodopsin EL1-EL3 peptide array; for Corrected rawintden - min: min subtracted; for normalized (binding intensity): normalized from corrected rawintden - min. The protocol:
Peptide arrays were purchased from the MIT Biopolymers Laboratory as described previously in [Karagöz et al. (2017)] and [Gardner and Walter (2011)]. The sequences of each protein were tiled from N- to C-terminus in 18-amino-acid-long peptides shifting by three amino acids from the previous spot. The arrays were incubated in methanol for 10 min, and then washed in binding buffer (50 mM HEPES pH 7.2, 250 mM NaCl, 10% glycerol) for 10 min at room temperature x 3. 500 nM of Fc-tagged DR5 extracellular domain (ECD, a kind gift from Scot Marsters) was incubated with the array in binding buffer at room temperature for 1 hr. Then, the array was washed three times for 10 min with binding buffer to remove unbound protein. The bound DR5 ECD was then transferred onto a nitrocellulose membrane via a semi-dry transfer apparatus (Owl HEP-1) at 80 mA for 45 min at 4°C. The membrane was then blocked with 1xPBST with 5% milk for 1 hr at room temperature and probed with 1:1000 anti-Fc (One World Lab #603–510) overnight at 4°C followed by 1:10000 anti-mouse IgG-HRP (Promega #W4021) for 1 hr at RT. The membrane was imaged using chemi-luminescence with the Bio-Rad Universal Hood II Gel Doc below saturating pixel intensities. The signal of each spot was quantified using Max Quant and normalized to the maximum intensity of all the spots on the same array.

For YVPFSNVTGVVRSPFEQP, the “Corrected rawintden - min” value stood at 640840 and the “normalized (binding intensity)” value is recorded as 0.1562.

As to VTGVVRSPFEQPQYYLAE, the “Corrected rawintden - min” value is 402567 and the “normalized (binding intensity)” value was found to be 0.09815.

Consider EQPQYYLAEPWQLHGYFV, for which the “Corrected rawintden - min” value worked out at 507200 and the “normalized (binding intensity)” value is given as 0.1237.

Regarding YFVFGPTGCNLERYIPEG, the “Corrected rawintden - min” value turned out to be 490636 and the “normalized (binding intensity)” value turned out to be 0.1196.

As to VNNESTHQGSNFMNGTEG, the “Corrected rawintden - min” value is 294091 and the “normalized (binding intensity)” value stood at 0.0717.

In the case of PEGMQCSCGIDYYTLKPE, the “Corrected rawintden - min” value is 1657676 and the “normalized (binding intensity)” value was 0.4041.

Consider YTLKPEVNNESTHQGSNF, for which the “Corrected rawintden - min” value was 870062 and the “normalized (binding intensity)” value was 0.2121.

In the case of TEGPNFYVPFSNVTGVVR, the “Corrected rawintden - min” value stood at 1182345 and the “normalized (binding intensity)” value is on record as 0.2883.

Take ESTHQGSNFMNGTEGPNF: the “Corrected rawintden - min” value was 320074 and the “normalized (binding intensity)” value was 0.07803.

With SCGIDYYTLKPEVNNEST, the “Corrected rawintden - min” value worked out at 1488599 and the “normalized (binding intensity)” value came to 0.3629.

As for LHGYFVFGPTGCNLERYI, the “Corrected rawintden - min” value stood at 1142815 and the “normalized (binding intensity)” value was 0.2786.

As for PNFYVPFSNVTGVVRSPF, the “Corrected rawintden - min” value is reported as 624655 and the “normalized (binding intensity)” value is recorded as 0.1523.

Turning to VVRSPFEQPQYYLAEPWQ, the “Corrected rawintden - min” value is given as 375649 and the “normalized (binding intensity)” value was determined as 0.09158.

As for HQGSNFMNGTEGPNFYVP, the “Corrected rawintden - min” value turned out to be 360135 and the “normalized (binding intensity)” value was found to be 0.0878.

On to QYYLAEPWQLHGYFVFGP, for which the “Corrected rawintden - min” value is on record as 996384 and the “normalized (binding intensity)” value is recorded as 0.2429.

Turning to KPEVNNESTHQGSNFMNG, the “Corrected rawintden - min” value amounted to 941789 and the “normalized (binding intensity)” value is given as 0.2296.

For the sequence LAEPWQLHGYFVFGPTGC, the “Corrected rawintden - min” value amounted to 890759 and the “normalized (binding intensity)” value was determined as 0.2172.

Take FSNVTGVVRSPFEQPQYY: the “Corrected rawintden - min” value turned out to be 470277 and the “normalized (binding intensity)” value was determined as 0.1147.

As for FGPTGCNLERYIPEGMQC, the “Corrected rawintden - min” value is given as 1562181 and the “normalized (binding intensity)” value was 0.3809.

Regarding NLERYIPEGMQCSCGIDY, the “Corrected rawintden - min” value came to 395368 and the “normalized (binding intensity)” value was 0.09639.

For the sequence SPFEQPQYYLAEPWQLHG, the “Corrected rawintden - min” value was determined as 517083 and the “normalized (binding intensity)” value is reported as 0.1261.

As for IDYYTLKPEVNNESTHQG, the “Corrected rawintden - min” value worked out at 1420533 and the “normalized (binding intensity)” value came to 0.3463.

As for SNFMNGTEGPNFYVPFSN, the “Corrected rawintden - min” value is 337810 and the “normalized (binding intensity)” value amounted to 0.08236.

As for RYIPEGMQCSCGIDYYTL, the “Corrected rawintden - min” value is 1340468 and the “normalized (binding intensity)” value stood at 0.3268.

MQCSCGIDYYTLKPEVNN: the “Corrected rawintden - min” value was 1701232 and the “normalized (binding intensity)” value stood at 0.4148.

With TGCNLERYIPEGMQCSCG, the “Corrected rawintden - min” value is recorded as 1149984 and the “normalized (binding intensity)” value was found to be 0.2804.

Take PWQLHGYFVFGPTGCNLE: the “Corrected rawintden - min” value is listed as 1093768 and the “normalized (binding intensity)” value is 0.2667.

With MNGTEGPNFYVPFSNVTG, the “Corrected rawintden - min” value was 827091 and the “normalized (binding intensity)” value is 0.2016.
